We go through ten compounds from article PMC11399425, “Tricyclic and tetracyclic antidepressants upregulate VMAT2 activity and rescue disease-causing VMAT2 variants” (Neuropsychopharmacology, 2024).

The structures appear in SMILES notation.

Data set [1] has as its target T1, VMAT2 (Mus musculus, UniProt Q8BRU6). In words: FFN206 uptake upregulation assay (18-h treatment, washout) in HEK-VMAT2 cells. As to conditions: for Emax, % vehicle (mean ± SEM) / EC50: 18 h treatment followed by washout; for Emax, % vehicle (mean ± SEM): at Emax concentration; for Emax concentration: 18 h treatment, concentration giving Emax; for Hill slope (upregulation): 18 h upregulation curve fit; for Effect on VMAT2 activity, sustained: 10 μM, washout, vs vehicle; for Effect on VMAT2 activity, sustained / Effect on VMAT2 activity, sustained, known VMAT2 inhibitors: 18 h; for EC50: HEK-VMAT2 cells, read-out: EC50 (95% CI), VMAT2 upregulation; for Effect on VMAT2 activity, sustained, known VMAT2 inhibitors: increasing concentrations (Fig. S5). Format: cell-based. Also on record: The full-length mouse and human SLC18A2 cDNAs encoding VMAT2 were cloned into pcDNA3.1 vectors; expressed in transfected cells.

Data set [2] deals with T1, VMAT2. As to the kind of experiment: FFN206 uptake inhibition assay (30-min treatment) in HEK-VMAT2 cells. As to conditions: for Hill Slope (inhibition): 30 min inhibition curve fit; for Imax, % vehicle (mean ± SEM): VMAT2 activity at 100 μM compound, 30 min, normalized to vehicle (100%).
Procedure: We detected colocalization of VMAT2 and FFN206 using epifluorescence microscopy (Fig. S2) and used FFN206 uptake to measure VMAT2 activity in HEK cells stably expressing mouse VMAT2 (HEK-VMAT2). We tested seven tricyclics and three tetracyclics that are approved for clinical use in humans (Fig. 1A, B). […] Next, we assessed the potency of the tricyclics and tetracyclics using dose response experiments.
For the inhibition assay, HEK-VMAT2 cells were seeded at 50,000 cells/well on day 1. […] Cells were incubated with FFN206 for 1hr. FFN206 uptake was terminated by aspirating the medium, and cells were washed twice with 200μL warm PBS (supplemented with 500μM MgCl2 and 900μM CaCl2), each with 5min incubation. Subsequently, 100μL warm PBS was added to each well and the plate was read with a Mithras LB 940 plate reader at excitation/emission filters 380nm/450nm.
For another data set, the system named is hSERT mRNA. As to the kind of experiment: RT-qPCR of hSERT in HEK-SERT cells. To be noted: 100 μM, 18 h, HEK293 cells. On the technique in general: In qPCR the cycle at which signal appears reflects the starting amount.
Data set [3] deals with monoamine transporter mRNA (VMAT2, VMAT1, DAT, NET, SERT). In words: RT-qPCR of endogenous monoamine transporters mRNA in BE(2)-M17 cells. In kind it is cell-based, human. As to conditions: 10 μM, 18 h.
Procedure: (§3) HEK-VMAT2, HEK-YFP-DAT, HEK-SERT, and BE(2)-M17 cells were seeded in 6-well tissue culture plates at 1,000,000 cells/well density. […] On the third day, medium was aspirated and the cells were directly collected in 1 mL/well of Trizol for RNA isolation [26]. RNA was reverse-transcribed into cDNA using the SuperScript™ IV VILO™ Master Mix with ezDNase™ Enzyme. Quantitative RT-qPCR was performed using PowerUp™ SYBR™ Green Master Mix and QuantStudio 3 Real-Time PCR System (ThermoFisher Scientific). The relative fold of gene expression was calculated as 2^-(∆∆Ct) normalized to GAPDH levels.
The target of data set [4] is T1, VMAT2. As to conditions: 100 μM, 18 h, HEK-VMAT2 cells. As to the method: (§1) HEK293, HEK-VMAT2, HEK-YFP-DAT, and HEK-SERT cells were seeded at 5,000,000 cells/dish density in 10 cm tissue culture dishes. […] On the collection day, cells were washed once with cold PBS, then harvested with 2 mL Tris-EDTA buffer (25 mM Tris-HCl, 1 mM EDTA, pH 7.4) containing freshly-added protease/phosphatase inhibitors. The cells were mechanically lysed on ice by Polytron (medium setting, 5 sec on, 5 sec off, two cycles), and centrifuged at 800 x g for 10 min at 4 °C to pellet the nuclear fraction. […] The supernatant was discarded and the pellet containing membrane proteins was resuspended with Tris-EDTA buffer with inhibitors and 0.2% SDS by vortexing until the pellet was dissolved. The protein concentration was determined using Pierce™ BCA Protein Assay Kits following the manufacturer’s instructions.
(§2) Electrophoretic resolution was done in MOPS-SDS running buffer (50 mM MOPS, 50 mM Tris, 0.1% SDS, 1 mM EDTA). The proteins were transferred onto a […] PVDF membrane and stained using Revert™ 700 Total Protein Stain. The resolved proteins were visualized at 700 nm on an Odyssey® M imaging system (LI-COR, Inc.). […] For the VMAT2 blot, the membrane was incubated with rabbit serum (in 50% glycerol) containing anti-mVMAT2 antibody against C-terminal peptide ([…]) at 1:3000 dilution overnight at 4 °C [24]. For the YFP-DAT blot, the membrane was incubated with rabbit-anti-GFP antibody (A11122) at 1:1500 dilution for 2 h at room temperature. For the SERT blot, the membrane was incubated with rabbit anti-SERT antibody (A104336, Antibodies.com) at 1:1000 dilution overnight at 4 °C. IRDye® 800CW Goat anti-Rabbit IgG secondary antibody at 1:7000 dilution in 3% non-fat milk in TBST was used for all blots. The blots were visualized under 700 nm and 800 nm channels on the Odyssey® M imaging system (LI-COR, Inc.) and quantified using ImageJ and Empiria Studio.

The target in another data set is DAT (SLC6A3) (Homo sapiens, UniProt Q01959). As to conditions: 100 μM, 18 h, HEK-YFP-DAT cells. The protocol: as §1, §2
For data set [5], the system named is nine missense VMAT2 BMVTD variants. As to the kind of experiment: FFN206 uptake of transiently transfected VMAT2 BMVTD variants in HEK293T cells. In kind it is cell-based, human. To be noted: 50 μM, 18 h, total FFN206 fluorescence.
For a further data set, the target named is T2, SERT (SLC6A4) (Homo sapiens, UniProt P31645).
T2 construct: expressed in transfected cells
Format: cell-based. The protocol:
as §1
Electrophoretic resolution was done in MOPS-SDS running buffer (50 mM MOPS, 50 mM Tris, 0.1% SDS, 1 mM EDTA). The proteins were transferred onto a […] PVDF membrane and stained using Revert™ 700 Total Protein Stain. The resolved proteins were visualized at 700 nm on an Odyssey® M imaging system (LI-COR, Inc.). […] The blots were visualized under 700 nm and 800 nm channels on the Odyssey® M imaging system (LI-COR, Inc.) and quantified using ImageJ and Empiria Studio.

The subject of another data set is mVMAT2 mRNA. In words: RT-qPCR of mVMAT2 in HEK-VMAT2 cells. To be noted: 100 μM, 18 h, HEK293 cells.
A further data set deals with hDAT mRNA. As to the kind of experiment: RT-qPCR of hDAT in HEK-YFP-DAT cells. Format: cell-based, human. As to conditions: 100 μM, 18 h, HEK293 cells.
Data set [6] concerns the target VMAT2 (Homo sapiens, UniProt Q05940). As to conditions: 10 μM, 18 h, BE(2)-M17 cells.
The conditions of data set [7]: ref PubChem; cited from earlier work.
For another data set, the target named is VMAT2 P387L (Homo sapiens, UniProt Q05940, P387L). To be noted: 18 h, increasing concentration.
The target of the next data set is VMAT2 P237H (Homo sapiens, UniProt Q05940, P237H). As to conditions: 18 h, increasing concentration.

Procedure for hDAT mRNA: as §3
Procedure for hSERT mRNA: as §3
Procedure for mVMAT2 mRNA: as §3

As usually defined, the IC50 is the concentration at which inhibition is half-maximal. With `CN(C)CCC=C1c2ccccc2CCc2ccccc21` [AMI, Amitriptyline], on VMAT2 [1], the “Emax, % vehicle (mean ± SEM)” value is recorded as 237.26 ± 7.63 % vehicle; the Emax concentration stood at 31.62 µM; the “Hill slope (upregulation)” value amounted to 1.728. For the same compound, on VMAT2 [2], the half-maximal inhibitory concentration (IC50) is 12.4 µM; the “Hill Slope (inhibition)” value is recorded as “–1.173”; the “Imax, % vehicle (mean ± SEM)” value is 8.47 ± 1.88 % vehicle.

One may read the EC50 as the midpoint of the concentration-response curve. Consider `CNCCCN1c2ccccc2CCc2ccccc21` [DES, Desipramine], for which, at VMAT2 [1], the “Effect on VMAT2 activity, sustained” value is “significant upregulation of VMAT2 activity”; the EC50 stood at 17.1 µM; the “Emax, % vehicle (mean ± SEM)” value turned out to be 177.59 ± 5.96 % vehicle; the Emax concentration came to 56.23 µM. Besides, the “Hill slope (upregulation)” value at VMAT2 [1] worked out at 1.530. On VMAT2 [2], half-maximal inhibition (IC50) was put at 16.2 µM; the “Hill Slope (inhibition)” value was “–1.176”; the “Imax, % vehicle (mean ± SEM)” value was 7.51 ± 1.28 % vehicle.

In the case of `CN(C)CCCN1c2ccccc2CCc2ccccc21` [IMI, Imipramine], in the data set with hSERT mRNA, the “SERT mRNA expression” value is reported as “elevated mRNA expression”. Besides, on VMAT2 [1], the “Effect on VMAT2 activity, sustained” value is reported as “significant upregulation of VMAT2 activity”; the EC50 came to 29.9 µM; the “Emax, % vehicle (mean ± SEM)” value stood at 245.36 ± 15.06 % vehicle; the “Hill slope (upregulation)” value worked out at 1.505. Besides, the “Emax, % vehicle (mean ± SEM)” value at VMAT2 [1] (listed as imipramine) worked out at 245.36 % vehicle. The “Monoamine transporter mRNA (including VMAT2)” value in data set [3] is “no upregulation in any monoamine transporter mRNA”. The “Total VMAT2 protein” value on VMAT2 [4] is reported as “significant increase”. Also, the “Total DAT protein” value at DAT (SLC6A3) was “did not affect total DAT protein”. Moreover, the “Activity of all VMAT2 variants” value in [5] is on record as “significant upregulation of activity of all VMAT2 variants”. Further, the “Total SERT protein” value at SERT (SLC6A4) is “significantly increased total SERT protein”. Further, in the data set on mVMAT2 mRNA, the “VMAT2 mRNA expression” value is recorded as “elevated mRNA expression”. Further, on VMAT2 [2], inhibition was half-maximal at 17.3 µM (IC50) and the “Hill Slope (inhibition)” value is “–1.195”. For the same compound, the “DAT mRNA expression” value in the data set on hDAT mRNA is given as “elevated mRNA expression”.

Usually logP stands for the decadic logarithm of the partition coefficient of the neutral form, usually between octanol and water. On to `CN1CCN2c3ccccc3Cc3ccccc3C2C1` (stereo not shown) [MIA, Mianserin], for which the “Total DAT protein” value on DAT (SLC6A3) is “did not affect total DAT protein”. The “Endogenous VMAT2 activity” value on VMAT2 [6] (followed by washout) is listed as 270 % of vehicle. Also, the “Endogenous VMAT2 activity without washout” value on VMAT2 [6] (without drug washout) is listed as “significant upregulation of endogenous VMAT2 activity”. Also, in [7], the logP is listed as 3.4. Besides, the “Activity of all VMAT2 variants” value in data set [5] is given as “significant upregulation of activity of all VMAT2 variants”. Further, the “Variant VMAT2 activity, dose-response” value on VMAT2 P387L and at VMAT2 P237H was “dose-dependent upregulation” each time.

For `CN1CCN2c3ncccc3Cc3ccccc3C2C1` (stereo not shown) [MIR, mirtazapine], at VMAT2 [1], the EC50 came to 35.1 µM; the “Emax, % vehicle (mean ± SEM)” value came to 175.11 ± 7.95 % vehicle; the Emax concentration stood at 100 µM; the “Hill slope (upregulation)” value stood at 2.486. Further, on VMAT2 [2], the IC50 came to 170 µM; the “Hill Slope (inhibition)” value is “–0.978”; the “Imax, % vehicle (mean ± SEM)” value is reported as 63.27 ± 7.1 % vehicle.

As to `CNCCC=C1c2ccccc2CCc2ccccc21` [NOR, Nortriptyline], on VMAT2 [1], the “Effect on VMAT2 activity, sustained” value is listed as “significant upregulation of VMAT2 activity”; the “Emax, % vehicle (mean ± SEM)” value was 207.90 ± 18.90 % vehicle; the Emax concentration stood at 31.62 µM; the “Hill slope (upregulation)” value was found to be 0.915. Also, at VMAT2 [2], the IC50 came out at 13.3 µM; the “Hill Slope (inhibition)” value is listed as “–0.920”; the “Imax, % vehicle (mean ± SEM)” value was determined as 8.73 ± 1.11 % vehicle.

On to `CNCCCC1c2ccccc2C=Cc2ccccc21` [PRO, Protriptyline], for which, on VMAT2 [1], the “Effect on VMAT2 activity, sustained” value is “significant upregulation of VMAT2 activity”; the “Emax, % vehicle (mean ± SEM)” value came out at 223.92 ± 11.02 % vehicle; the Emax concentration was found to be 31.62 µM; the “Hill slope (upregulation)” value is on record as 0.777. For the same compound, at VMAT2 [2], the IC50 worked out at 4.35 µM; the “Hill Slope (inhibition)” value was “–1.042”; the “Imax, % vehicle (mean ± SEM)” value was found to be 2.93 ± 0.24 % vehicle.

For `COc1cc2c(cc1OC)C1CC(=O)C(CC(C)C)CN1CC2` (stereo not shown) [TBZ, tetrabenazine], the “Effect on VMAT2 activity, sustained, known VMAT2 inhibitors” value on VMAT2 [1] is “no upregulation of VMAT2 activity was observed”. Besides, on VMAT2 [2], the IC50 amounted to 0.037 µM; the “Hill Slope (inhibition)” value was “–0.598”; the “Imax, % vehicle (mean ± SEM)” value was 9.51 ± 0.67 % vehicle.

As for `CC(CN(C)C)CN1c2ccccc2CCc2ccccc21` (stereo not shown) [TRI, Trimipramine], at VMAT2 [1], the “Effect on VMAT2 activity, sustained” value was “significant upregulation of VMAT2 activity”; the EC50 turned out to be 31.1 µM; the “Emax, % vehicle (mean ± SEM)” value was 194.63 ± 22.32 % vehicle; the Emax concentration amounted to 100 µM. For the same compound, at VMAT2 [1], the “Hill slope (upregulation)” value was found to be 1.939. On VMAT2 [2], the IC50 was 13.1 µM; the “Hill Slope (inhibition)” value was “–1.173”; the “Imax, % vehicle (mean ± SEM)” value amounted to 5.87 ± 1.33 % vehicle.

With `O=C(CCCN1CCC(O)(c2ccc(Cl)cc2)CC1)c1ccc(F)cc1` [haloperidol], the “Effect on VMAT2 activity, sustained, known VMAT2 inhibitors” value on VMAT2 [1] was “no upregulation of VMAT2 activity was observed”.
